Molecular target: human MMP-13 catalytic domain (hMMP-13CD) (Homo sapiens, UniProt P45452)
Assay: Inhibition of MMP-13 catalytic domain (thiopeptolide substrate assay)
Type: biochemical
From the text: The assays measure the amount by which a test compound reduces the hydrolysis of a thiopeptolide substrate catalyzed by a matrix metalloproteinase enzyme. Such assays are described in detail by Ye et al., in Biochemistry, 1992;31(45):11231-11235, which is incorporated herein by reference. One such assay is described below in Biological Method 1.
Thiopeptolide substrates show virtually no decomposition or hydrolysis at or below neutral pH in the absence of a matrix metalloproteinase enzyme. A typical thiopeptolide substrate commonly utilized for assays is Ac-Pro-Leu-Gly-thioester-Leu-Leu-Gly-OEt. […] The change in absorbance at 405 nm is monitored on a Thermo Max microplate reader (molecular Devices, Menlo Park, Calif.) at room temperature (22° C.). […]
Some representative compounds of Formula I have been evaluated for their ability to inhibit MMP-13. Inhibitor activity versus other MMPs with the compounds may be determined using, for example, MMP-1FL, which refers to full length interstitial collagenase; MMP-2FL, which refers to full length Gelatinase A; MMP-3CD, which refers to the catalytic domain of stromelysin; MMP-7FL, which refers to full length matrilysin; MMP-9FL, which refers to full length Gelatinase B; MMP-13CD, which refers to the catalytic domain of collagenase 3; and MMP-14CD, which refers to the catalytic domain of MMP-14. […]

Molecule `O=C(O)c1ccc(Cn2ccc3ccc(C#CCn4ccnn4)cc3c2=O)cc1` [4-[1-oxo-7-(3-[1,2,3]triazol-1-ylprop-1-ynyl)-1H-isoquinolin-2-ylmethyl]benzoic acid] has an IC50 of over 50 µM.

Source: US20040034009A1, “1,6-Fused uracil derivatives as matrix metalloproteinase inhibitors” (priority 2002, published 2004)
